Measured values reported in paper PMC13539321 (Journal of Advanced Research, 2025).

Target: Mushroom TYR (EC 1.14.18.1) (Agaricus bisporus, UniProt C7FF04)
Test: biochemical
Settings: IC50 value ± SD
[1] = L-dopa, substrate L-dopa (diphenolase), n = 3, screening of de novo generated compounds (Table 1)
[2] = L-tyrosine, substrate L-tyrosine (monophenolase), n = 3, screening of de novo generated compounds (Table 1)

Chain of Mushroom TYR (EC 1.14.18.1) (C7FF04 1-392 limits assumed): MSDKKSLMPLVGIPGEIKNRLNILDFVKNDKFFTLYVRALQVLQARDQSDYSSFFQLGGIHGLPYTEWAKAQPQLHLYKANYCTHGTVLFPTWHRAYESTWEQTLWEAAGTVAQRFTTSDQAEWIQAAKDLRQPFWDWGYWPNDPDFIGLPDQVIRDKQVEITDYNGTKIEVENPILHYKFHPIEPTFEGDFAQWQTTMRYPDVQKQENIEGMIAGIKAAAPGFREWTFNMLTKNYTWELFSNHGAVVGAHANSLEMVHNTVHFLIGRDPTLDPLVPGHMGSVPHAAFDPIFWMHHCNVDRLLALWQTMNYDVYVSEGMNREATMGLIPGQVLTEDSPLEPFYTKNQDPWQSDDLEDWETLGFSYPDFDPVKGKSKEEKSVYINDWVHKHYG

IC50 [1] [µM]	IC50 [2] [µM]	IC50 (L-dopa) [µM]	IC50 (L-tyrosine) [µM]	SMILES
		0.02 ± 0.002	0.023 ± 0.002	COc1ccc(CN2CCN(C(=O)/C=C/c3ccc(O)cc3O)CC2)cc1 [Compound V-26, (E)-3-(2,4-dihydroxyphenyl)-1-(4-(4-methoxybenzyl)piperazin-1-yl)prop-2-en-1-one]
		0.153 ± 0.011	0.187 ± 0.003	O=C(CCc1ccc(O)cc1O)N1CCN(Cc2ccc(Cl)cc2)CC1 [Compound V-31, 1-(4-(4-chlorobenzyl)piperazin-1-yl)-3-(2,4-dihydroxyphenyl)propan-1-one]
		0.085 ± 0.016	0.122 ± 0.008	O=C(/C=C/c1ccc(O)cc1O)N1CCN(Cc2ccc(F)cc2)CC1 [Compound V-22, (E)-3-(2,4-dihydroxyphenyl)-1-(4-(4-fluorobenzyl)piperazin-1-yl)prop-2-en-1-one]
		0.596 ± 0.026	0.497 ± 0.07	CCOc1ccc(CN2CCN(C(=O)CCc3ccc(O)cc3O)CC2)cc1 [Compound V-27, 3-(2,4-dihydroxyphenyl)-1-(4-(4-ethoxybenzyl)piperazin-1-yl)propan-1-one]
		0.019 ± 0.0002	0.021 ± 0.001	CCOc1ccc(CN2CCN(C(=O)/C=C/c3ccc(O)cc3O)CC2)cc1 [Compound V-28, (E)-3-(2,4-dihydroxyphenyl)-1-(4-(4-ethoxybenzyl)piperazin-1-yl)prop-2-en-1-one]
		103 ± 5.6	132 ± 5.4	COc1ccc(CN2CCN(C(=O)CCc3cccc(O)c3)CC2)cc1 [Compound V-13, 3-(3-hydroxyphenyl)-1-(4-(4-methoxybenzyl)piperazin-1-yl)propan-1-one]
		> 400	20.1 ± 0.7	Cc1ccc(CN2CCN(C(=O)CCc3cccc(O)c3)CC2)cc1 [Compound V-11, 3-(3-hydroxyphenyl)-1-(4-(4-methylbenzyl)piperazin-1-yl)propan-1-one]
		72.6 ± 3.1	83.2 ± 3.2	N#Cc1ccc(CN2CCN(C(=O)CCc3cccc(O)c3)CC2)cc1 [Compound V-14, 4-((4-(3-(3-hydroxyphenyl)propanoyl)piperazin-1-yl)methyl)benzonitrile]
		0.147 ± 0.013	0.165 ± 0.008	COc1ccc(CN2CCN(C(=O)CCc3ccc(O)cc3O)CC2)cc1 [Compound V-25, 3-(2,4-dihydroxyphenyl)-1-(4-(4-methoxybenzyl)piperazin-1-yl)propan-1-one]
		21.3 ± 0.8	9.1 ± 0.6	O=C(CCc1cc(O)cc(O)c1)N1CCN(Cc2ccc(F)cc2)CC1 [Compound V-20, 3-(3,5-dihydroxyphenyl)-1-(4-(4-fluorobenzyl)piperazin-1-yl)propan-1-one]
		26.1 ± 4.6	2.9 ± 0.1	O=C(CCc1ccc(O)cc1)N1CCN(Cc2ccc(F)cc2)CC1 [Compound V-4, 1-(4-(4-fluorobenzyl)piperazin-1-yl)-3-(4-hydroxyphenyl)propan-1-one]
		66.1 ± 4.6	60.6 ± 4.5	O=C(CCc1ccccc1O)N1CCN(Cc2ccc(F)cc2)CC1 [Compound V-3, 1-(4-(4-fluorobenzyl)piperazin-1-yl)-3-(2-hydroxyphenyl)propan-1-one]

Continued, compound first:

SMILES	IC50 [1] [µM]	IC50 [2] [µM]	IC50 (L-dopa) [µM]	IC50 (L-tyrosine) [µM]
Cc1nc2ccc(C(=O)NCc3ccc(O)cc3)cc2[nH]1 [XIII, N-(4-hydroxybenzyl)-2-methyl-1H-benzo[d]imidazole-6-carboxamide]	> 800	99.7 ± 15.3		
NC(=O)[C@H](Cc1ccccc1)NC(=O)c1cccc(O)c1 [III, (S)-N-(1-amino-1-oxo-3-phenylpropan-2-yl)-3-hydroxybenzamide]	> 800	> 800		
O=C(CCc1cccc(O)c1)N1CC2CN(Cc3ccc(F)cc3)CC2C1 (centres unmarked) [Compound V-7, 1-(5-(4-fluorobenzyl)hexahydropyrrolo[3,4-c]pyrrol-2(1H)-yl)-3-(3-hydroxyphenyl)propan-1-one]			119 ± 5.2	25.8 ± 1.1
O=C(CCc1cccc(O)c1)N1CCN(Cc2cccs2)CC1 [Compound V-18, 3-(3-hydroxyphenyl)-1-(4-(thiophen-2-ylmethyl)piperazin-1-yl)propan-1-one]			> 800	> 300
O=C(Oc1ccc(N2CCNCC2)cc1)c1cnc2ccccc2c1 [XVI, 4-(piperazin-1-yl)phenyl quinoline-3-carboxylate]	138 ± 5.1	16 ± 1.6		
O=C(O)c1ccc(CN2CCC(C(=O)c3ccccc3)CC2)cc1 [IX, 4-((4-benzoylpiperidin-1-yl)methyl)benzoic acid]	> 800	> 800		
O=C(CCc1cccc(O)c1)N1CCN(Cc2cccc(F)c2)CC1 [Compound V-2, 1-(4-(3-fluorobenzyl)piperazin-1-yl)-3-(3-hydroxyphenyl)propan-1-one]			> 400	295 ± 24.2
COc1cc(C(=O)N[C@@H](Cc2ccccc2)C(N)=O)ccc1O [Compound I, (S)-N-(1-amino-1-oxo-3-phenylpropan-2-yl)-4-hydroxy-3-methoxybenzamide]	> 800	> 800		
O=C(/C=C/c1cccc(O)c1)N1CCN(Cc2ccc(F)cc2)CC1 [Compound V-5, (E)-1-(4-(4-fluorobenzyl)piperazin-1-yl)-3-(3-hydroxyphenyl)prop-2-en-1-one]			> 200	148 ± 25.4
O=C(CCc1cccc(O)c1)N1CCCN(Cc2ccc(F)cc2)CC1 [Compound V-6, 1-(4-(4-fluorobenzyl)-1,4-diazepan-1-yl)-3-(3-hydroxyphenyl)propan-1-one]			296 ± 7.9	88.9 ± 2.9
O=C(CCc1cccc(O)c1)N1CCN(Cc2ccco2)CC1 [Compound V-17, 1-(4-(furan-2-ylmethyl)piperazin-1-yl)-3-(3-hydroxyphenyl)propan-1-one]			> 800	> 600
O=C(/C=C/c1ccc(O)cc1O)N1CCN(Cc2cccc(Cl)c2)CC1 [Compound V-30, (E)-1-(4-(3-chlorobenzyl)piperazin-1-yl)-3-(2,4-dihydroxyphenyl)prop-2-en-1-one]			0.022 ± 0.001	0.021 ± 0.0003
O=C(CCc1cccc(O)c1)N1CCN(CCc2ccccc2)CC1 [Compound V-16, 3-(3-hydroxyphenyl)-1-(4-phenethylpiperazin-1-yl)propan-1-one]			> 800	> 300
O=C(CCc1cccc(O)c1)NC1CCN(Cc2ccccc2)CC1 [IV, N-(1-benzylpiperidin-4-yl)-3-(3-hydroxyphenyl)propanamide]	> 800	198 ± 7.6		
O=C(CCc1cccc(O)c1)N1CCN(Cc2ccccn2)CC1 [Compound V-19, 3-(3-hydroxyphenyl)-1-(4-(pyridin-2-ylmethyl)piperazin-1-yl)propan-1-one]			> 800	> 600
O=C(CCc1cccc(O)c1)NCCNCc1ccc(F)cc1 [Compound V-8, N-(2-((4-fluorobenzyl)amino)ethyl)-3-(3-hydroxyphenyl)propanamide]			> 800	298 ± 16.6
N#Cc1ccc(CN2CCN(C(=O)/C=C/c3ccc(O)cc3O)CC2)cc1 [Compound V-34, (E)-4-((4-(3-(2,4-dihydroxyphenyl)acryloyl)piperazin-1-yl)methyl)benzonitrile]			0.032 ± 0.004	0.041 ± 0.005
O=C(CCc1cccc(O)c1)N1CCN(C/C=C/c2ccc(F)cc2)CC1 [Compound V-15, (E)-1-(4-(3-(4-fluorophenyl)allyl)piperazin-1-yl)-3-(3-hydroxyphenyl)propan-1-one]			140 ± 15.6	41.8 ± 3.2
O=C(C=Cc1ccccc1)NCCc1cccc(O)c1 [XI, N-(3-hydroxyphenethyl)cinnamamide]	> 800	622 ± 82.8		
